Assay results taken from patent publication US20220119446A1, “BIOMARKERS AND TREATMENT OF NEURONAL INJURY AND NEURODEGENERATION” (Board of Supervisons of Louisiana State University and …, priority 2018, published 2022).
“Also recorded” adds a separate entry of the source. * marks the point of attachment. Boc = CC(C)(C)OC(=O)*

What was measured:
[1] = test system: rats subjected to MCAo; experiment: Transient MCAo: MRI of lesion volume; format: in vivo; details: rat, 2 h MCAo, Box5 IV 1 h later, day 7
Experimental: The right MCA can be occluded for 2 h by intraluminal filament, as described previously (Belayev et al. 2011). Briefly, the right common carotid artery (CCA) and external carotid artery (ECA) can be exposed through midline neck incision, and then completely isolated from the surrounding nerves. The occipital branches of the ECA and pterygopalatine artery can be ligated. A 4-cm of 3-0 nylon filament, coated with poly-L-lysine can be advanced to the origin of MCA through the proximal ECA via internal carotid artery. The filament can be inserted 20 to 22 mm from the bifurcation of the CCA, according to the animal's body weight. The neck incision can then be closed, and the rats can be returned to their cages. After about 2 h of MCAo, the rats can be re-anesthetized with the same anesthetic combination and the intraluminal filament can be gently removed. […]
In embodiments, high-resolution ex vivo magnetic resonance imaging (MRI) is performed on 4% paraformaldehyde-fixed brains at each time point (days 1, 3 and 7) using an 11.7T Bruker Advance 8.9 cm horizontal bore instrument equipped with an 89 mm (ID) receiver coil (Bruker Biospin, Billerica, Mass., USA). T2-weighted images (T2WI), diffusion weighted images (DWI), 3D volumes and apparent diffusion coefficient (ADC) maps can be collected and analyzed as previously described and known in the art (Obenaus et al. 2011). […]

[2] = test system: Wnt5a; experiment: Microarray of Wnt5a expression in 15-LOX-1 deficient ARPE-19 cells under uncompensated oxidative stress (UOS); format: cell-based, human; details: UOS=600 μM H2O2 plus 10 ng/ml TNFα, 6 hours, UOS alone gives 2-fold increase
Experimental: Primary human RPE cultures can be from human eyecups, provided by the National Disease Research Interchange (NDRI), as described previously (Calandria et al. 2012). hRPE cells can be grown and maintained in high-glucose MEM (Life Technologies Corporation, Carlsbad, Calif.) supplemented with 10% FBS (Tissue Culture Biologicals, Inc., Long Beach, Calif.), 5% NCS, non-essential amino acids, Penicillin-Streptomycin (100 U/mL), human fibroblast growth factor (FGF) 10 ng/mL and incubated at 37° C. with a constant supply of 5% CO2. ARPE-19 cells, can be plated and grown in DMEM/F-12 containing 10% FBS and 1× penicillin/streptomycin at 37° C., 5% CO2, 99% relative humidity for 24 h. Silenced 15-LOX-1 cells, described in detail elsewhere (Calandria et al. 2009), are derived from ARPE-19 by stably silencing 15-LOX-1. 15-LOX-1 deficient cells can be maintained in the same medium as ARPE-19 with the addition of 500 μg/mL Geneticin (Life Technologies Corporation, Carlsbad, Calif.). […] Transfection efficiency can be assessed using an expression plasmid-carrying GFP ORF or by including a negative control siRNA conjugated with Alexa Fluor® 488 or 546 (QIAGEN, Hilden, Germany). siRNA efficiency can be assessed using SYBR green-based real-time PCR using the primers of Table 2 and the percentage of silencing achieved (FIG. 7). […]

Compound | MRI lesion (infarct) volume [1] | Wnt5a expression [2]
t-Boc-NH-Met-Asp-Gly-Cys-Glu-Leu-CO2H (Boc-MDGCEL-OH) [Box5] | steep decreased in the infarcted volume; also recorded: resembling DHA treatment; also recorded: reduces stroke size; also recorded: decreased volume of brain damage | –
CC/C=C\C[C@H](O)\C=C/C=C/C=C/[C@H](O)C/C=C\C/C=C\CCC(=O)O [NPD1, 10R,17S-dihydroxy-docosa-4Z,7Z,11E,13E,15Z,19Z-hexaenoic acid] | – | brought down to below controls; also recorded: reversed
